According to patent publication US11723947B2, “Anti-senescence compounds and uses thereof” (Erasmus University Medical Center Rotterdam, priority 2015, dated 2023):
Peptide text beside a SMILES is read from it. * marks the point of attachment. Cbz = O=C(OCc1ccccc1)*; CH2F = FC*

Key:
[1] = tested on: Senescent and control IMR90; conditions: for effect on effectiveness of FOXO4 DRI in lowering senescent cell viability: viability measured one day earlier; for effect of pan-caspase inhibitor on the FOXO4 DRI effect on senescent cell viability: 20 μM inhibitor, 25 μM FOXO4 DRI, senescent IMR90, 6 days
Protocol: The selectivity index (S.I.) for the EC50 values was determined after […] (GraphPad Prism) of the curves. […] Real-time cell density was measured using an xCELLigence detection system (ACEA Biosciences). Prior to the start of the measurement 50 μL DMEM 10% FCS was added to each well of an E-plate view 16 (Roche) to determine background signal. Non-senescent (2000 cells per well) and senescent (5000 cells/well) IMR90 fibroblasts were then plated in 150 μl medium. 16 hours later the E-plate was placed in the xCELLigence reader and the cell density was recorded every 30 minutes. […] Measurements continued for the indicated time-points. […] Experiment as in FIG. 2C, but with the indicated peptides. […] Cells were plated in 4-well Poly-L-Lysine coated glass bottom 35 mm dishes (D141410; Matsumi, Japan) and incubated with NucView488 Caspase-3 (4440; Essen Bioscience). […] 8h after addition the real-time imaging was initiated and every 30 min a grid of 3×3 pictures was imaged. The imaging continued for another 6 days and the images were concatenated using Zen imaging software. […] After 6 days cell viability was determined as in FIG. 2C). […] Experiment as in FIG. 2C, but according to the indicated treatment plan. Instead of one single dose, three doses were given (one day in between) of ⅓ that concentration each time. […] Left: Experiment as in FIG. 2C, but on cells pretreated once daily for two days with IL-1α Receptor Antagonist (RA), which blocks IL-1α/β signaling, recombinant IL-6 and recombinant IL-1α/β. […] Right: Similar experiment as in the left panel, except viability measured one day earlier. […] In senescent cells p53 signaling causes upregulation of the cell-cycle arrest and pro-survival protein p21Cip1. […] Experiment as in FIG. 2K. […] Experiment as in FIG. 2c, but with control and senescent IMR90 stable transduced with shRNAs against p53 or a control shRNA (shGFP).
A) Control IMR90 and IMR90 induced to senesce through 10Gy IR were plated in triplicate for each condition in a 96-well plate. […] After 6 days viability was determined through AqeousOne celltiter assay (Promega) according to the manufacturer's instructions.
Non-senescent (=“normal”, proliferating) IMR90 cells (ATCC #CCL-186, a diploid primary human fibroblast adherent cell line derived from fetal lung tissue) were irradiated with 10Gy Gamma-IR (IR=irradiation). After 7 days these cells are senescent and can be used for experiments comparing them to their non-irradiated (=non-senescent) counterparts. Senescent and non-senescent IMR90 fibroblasts were plated for longitudinal cell density measurement using the xCELLigence system (ACEA Biosciences, Inc., San Diego, Calif.).
(§1) 5000 senescent (obtained as described above) and 2000 non-senescent IMR90 fibroblasts were plated in 96-well plates incubated with concentrations of NQDI between 0-20 μM and after 6 days cell viability was determined by AqueousOne CellTiter (MTT) assay according to the manufacturer's instructions.
as §1, with “R406, ranging from 16, 32, 64 to 128 nM” for “NQDI between 0-20 μM”
Normal human IMR90 fibroblasts were exposed to 10 Gy Ionizing Radiation or treated 3× (bidaily) with 0.5 μM Doxorubicin. Seven days later they were processed for SA-β-Gal staining to visualize senescent cells. […] DAPI was used as a counterstain to visualize nuclei. […] After 6 days the cell viability was determined using an AqueousOne Celltiter (MTT) assay according to the manufacturer's instructions.

[2] = tested on: p16^ink4a-positive senescence; test: Doxorubicin-induced senescence in p16::3MR mice (RLUC bioluminescence, SA-beta-GAL); type: in vivo, mouse
Protocol: IMR90 cells were exposed twice to 0.5 μM Doxorubicin with one day in between. SA-β-GAL activity was determined 7 days later. […] This figure complements FIG. 4A+B by showing that next to the senescence markers SA-β-Gal and p16^ink4a also the SASP marker IL-6 is elevated by Doxorubicin. […] Mice were i.p. injected with 10 mg/kg Doxorubicin and analyzed for RLUC on the indicated time-points. Changes in RLUC intensity for 5 animals are plotted for the indicated timepoints after injection. […] Following one dose of Doxorubicin (10 mg/kg, i.p.) the mice were treated with FOXO4 DRI (n=6; 4×10 mg/kg i.v.) or PBS (n=4; 4× Mock) and processed for RLUC imaging after 14 d. […] Mice treated as indicated in FIG. 4F were analyzed for Bioluminescence. […] H) To improve the window for measuring healthspan changes, the treatment regime from FIG. 4F) was extended with one additional dose of Doxorubicin and milder FOXO4 DRI treatment. Following two doses of Doxorubicin (both 10 mg/kg i.p.) the mice (n=3 each group) were subsequentially treated with PBS or FOXO4 DRI (3×5 mg/kg, 1 d in between) and 14 d later analyzed for changes in healthspan. […] Post-mortem analysis of liver sections from mice (n=2 each group) treated as in FIG. 4H and stained for FOXO4. The number of FOXO4 foci was objectively quantified using ImageJ. […] Mice treated as depicted in FIG. 4H (n=9 for PBS, n=11 for FOXO4 DRI) were analyzed for total body weight before and after Doxorubicin-exposure followed by treatment with PBS or FOXO4 DRI. […]
Our senescence-detection model makes use of a construct in which the promoter of p16^ink4a drives a so-called trimodality reporter (3MR) referred to as p16::3MR. […] RLUC and RFP allow visualization of senescent cells in real-time through bioluminescence and fluorescence, respectively. […] On day 0, p16::3MR mice (Demaria et al., Developmental Cell, 31:6 p. 722-733 (2014)) including the Supplemental Experimental procedures) were i.p. injected with 10 mg/kg Doxorubicin and RLUC activity as measure of senescence was determined on the indicated timepoints. […]

Doxorubicin-treated mice = test: Doxorubicin-treated mice: liver sections, body weight, plasma ASAT and Amylase; type: in vivo
Protocol: IMR90 cells were exposed twice to 0.5 μM Doxorubicin with one day in between. SA-β-GAL activity was determined 7 days later. […] Mice were i.p. injected with 10 mg/kg Doxorubicin and analyzed for RLUC on the indicated time-points. Changes in RLUC intensity for 5 animals are plotted for the indicated timepoints after injection. […] Mice treated as indicated in FIG. 4F were analyzed for Bioluminescence. […] Liver sections from the experiment in FIG. 4I were stained for IL-6. […] The ratio was plotted. […] Experiment as in FIG. 4H. n=3 animals per group.

IMR90 cells = test: Senescence markers in Doxorubicin-treated IMR90 in vitro; type: cell-based, human
Protocol: IMR90 cells were exposed twice to 0.5 μM Doxorubicin with one day in between. SA-β-GAL activity was determined 7 days later. […] This figure complements FIG. 4A+B by showing that next to the senescence markers SA-β-Gal and p16^ink4a also the SASP marker IL-6 is elevated by Doxorubicin. […] Mice were i.p. injected with 10 mg/kg Doxorubicin and analyzed for RLUC on the indicated time-points. Changes in RLUC intensity for 5 animals are plotted for the indicated timepoints after injection. […] Following one dose of Doxorubicin (10 mg/kg, i.p.) the mice were treated with FOXO4 DRI (n=6; 4×10 mg/kg i.v.) or PBS (n=4; 4× Mock) and processed for RLUC imaging after 14 d. […] Mice treated as indicated in FIG. 4F were analyzed for Bioluminescence. […] H) To improve the window for measuring healthspan changes, the treatment regime from FIG. 4F) was extended with one additional dose of Doxorubicin and milder FOXO4 DRI treatment. Following two doses of Doxorubicin (both 10 mg/kg i.p.) the mice (n=3 each group) were subsequentially treated with PBS or FOXO4 DRI (3×5 mg/kg, 1 d in between) and 14 d later analyzed for changes in healthspan. […] Post-mortem analysis of liver sections from mice (n=2 each group) treated as in FIG. 4H and stained for FOXO4. The number of FOXO4 foci was objectively quantified using ImageJ. […] Liver sections from the experiment in FIG. 4I were stained for IL-6. […] Mice treated as depicted in FIG. 4H (n=9 for PBS, n=11 for FOXO4 DRI) were analyzed for total body weight before and after Doxorubicin-exposure followed by treatment with PBS or FOXO4 DRI. The ratio was plotted. […] Experiment as in FIG. 4H. n=3 animals per group.
DAPI was used as a counterstain to visualize nuclei. […] The histograms show % viability for the indicated conditions (.

For `CN(C)CC[C@H](CSc1ccccc1)Nc1ccc(S(=O)(=O)NC(=O)c2ccc(N3CCN(Cc4ccccc4-c4ccc(Cl)cc4)CC3)cc2)cc1[N+](=O)[O-]` [ABT-737], the “toxicity to non-senescent cells” value [1] was “proved to be toxic to non-senescent cells” and the “killing/clearing of senescent cells” value ([1]; 3× at ⅓, 3 days in between, senescence by IR) was “only showed limited effectiveness on killing senescent cells”.

For `C[C@]12CCC(=O)C=C1CC[C@@H]1[C@@H]2[C@@H](O)C[C@@]2(C)[C@H]1CC[C@]2(O)C(=O)CO` [Cortisol], the “effect on effectiveness of FOXO4 DRI in lowering senescent cell viability” value [1] was “reduce the effectiveness of FOXO4 DRI in lowering senescent cell viability”.

`COc1cccc2c1C(=O)c1c(O)c3c(c(O)c1C2=O)C[C@@](O)(C(=O)CO)C[C@@H]3O[C@H]1C[C@H](N)[C@H](O)[C@H](C)O1` [Doxorubicin] was tested, and the “induction of senescence in vivo (RLUC)” value ([2]; 10 mg/kg i.p., p16::3MR mice) was “induces p16^ink4a-mediated senescence in vivo”, the “organ toxicity (liver, pancreas)” value (Doxorubicin-treated mice; mouse, in vivo, ip, 10 mg/kg) was “caused organ toxicity” and the total body weight (Doxorubicin-treated mice; two doses 10 mg/kg i.p., mice) was “causes a drop in body weight”. For the same molecule, the SA-β-GAL expression (IMR90 cells; IMR90, twice 0.5 μM, 7 days later) was “induces SA-β-GAL expression in IMR90 cells in vitro”, the “IL-6 (SASP marker)” value (IMR90 cells; IMR90 in vitro) was “induces IL-6, indicative of elevated SASP” and the “expression of p16^ink4a and FOXO4” value (IMR90 cells; IMR90 in vitro) was “induces expression of p 16^ink4a and FOXO4 in IMR90 in vitro”.

With `CC(C)[C@H](NC(=O)c1ccc2ccccc2n1)C(=O)N[C@@H](CC(=O)O)C(=O)COc1c(F)cccc1F` [QVD-OPH] the “effect of pan-caspase inhibitor on the FOXO4 DRI effect on senescent cell viability” value [1] was “potently blocked the effect of FOXO4 DRI to reduce senescent cell viability”.

`O=c1c(O)c(-c2ccc(O)c(O)c2)oc2cc(O)cc(O)c12` [Quesrcetin] was tested, and the “clearing of senescent IMR90, viability senescent vs non-senescent” value ([1]; Quesrcetin alone) was “inefficent towards clearing senescent IMR90”.

`COc1cc(Nc2ncc(F)c(Nc3ccc4c(n3)NC(=O)C(C)(C)O4)n2)cc(OC)c1OC` [R406, 6-(5-fluoro-2-(3,4,5-trimethoxyphenylamino)pyrimidin-4-ylamino)-2,2-dimethyl-2H-pyrido[3,2-b][1,4] oxazin-3 (4H)-one benzenesulfonate] was tested, and the “SA-beta-GAL deposits in kidneys” value ([2]; Doxorubicin 10 mg/kg i.p. day 0, once daily i.v. day 11-14) was “reduced SA-beta-GAL deposits in kidneys”, the “Doxorubicin-induced senescence in vivo (bioluminescence)” value ([2]; Doxorubicin 10 mg/kg i.p. day 0, once daily i.v. day 11-14, imaging day 11 and day 21) was “repress Doxorubicin-induced senescence in vivo” and the “% viability over Mock, senescent and non-senescent IMR90” value ([1]; 16, 32, 64 to 128 nM, 6 days) was “selectively reduces senescent cell viability”.

With `COC(=O)C[C@H](NC(=O)[C@H](C)NC(=O)[C@@H](NC(=O)OCc1ccccc1)C(C)C)C(=O)CF` [ZVAD-FMK] (Cbz-Val-Ala-Asp(OMe)-CH2F) the “effect of pan-caspase inhibitor on the FOXO4 DRI effect on senescent cell viability” value [1] was “potently blocked the effect of FOXO4 DRI to reduce senescent cell viability”.

For “IL-1RA: IL-1α Receptor Antagonist, which blocks IL-1α/β signaling”, the “effect of pretreatment on effectiveness of FOXO4 DRI for killing senescent cells” value ([1]; pretreated once daily for two days, FOXO4 DRI 12.5 μM) was “reduced the effectiveness of FOXO4 DRI”.

With Lipopolysaccharide the “effect on effectiveness of FOXO4 DRI in lowering senescent cell viability” value [1] was “improves it”.
